Tests used:
Conditions in all cases: stereoisomer not certain
[1] = RP, Waters ACQUITY UPLC HSS T3, 0.4 mL/min; A: water + 0.01% formic acid; B: 50% water + 50% acetonitrile + 0.01% formic acid; gradient (min/%B) 0/0 0.5/0 9/30 10/50 15/100 16/100 17/0 25/0
[2] = HILIC, Waters Atlantis Premier BEH Z-HILIC, 100 × 2.1 mm, 1.7 µm, 40 °C, 0.15 mL/min, estimated dead time 1.5 min; A: water + 20 mM ammonium carbonate + 5 µM medronic acid; B: 10% water + 90% acetonitrile + 2 mM ammonium carbonate + 0.5 µM medronic acid; gradient (min/%B) 0/95 18/50 18.1/20 21.5/20 22/95 23.5/95 25.5/95
[3] = HILIC, Waters Atlantis Premier BEH Z-HILIC, 100 × 2.1 mm, 1.7 µm, 40 °C, 0.15 mL/min, estimated dead time 1.5 min; A: water + 20 mM ammonium carbonate + 5 µM medronic acid; B: 10% water + 90% acetonitrile + 2 mM ammonium carbonate + 0.5 µM medronic acid; gradient (min/%B) 0/97 18/55 18.1/20 21.5/20 22/97 23.5/97 25.5/97
[4] = RP, Waters ACQUITY UPLC BEH C18, 100 × 2.1 mm, 1.7 µm, 35 °C, 0.3 mL/min, estimated dead time 0.73 min; A: water + 0.1% formic acid, pH 3; B: methanol; gradient (min/%B) 0/10 1.6/10 2/20 6/70 7/70 14/90 17.5/90 18/95 21/95
[5] = RP, Waters ACQUITY UPLC BEH C18, 100 × 2.1 mm, 1.7 µm, 35 °C, 0.3 mL/min, estimated dead time 0.73 min; A: water + 0.1% formic acid, pH 3; B: methanol; gradient (min/%B) 0/0 1.6/0 2/20 6/70 7/70 14/90 17.5/90 18/95 21/95
[6] = RP, Waters ACQUITY UPLC BEH C18, 100 × 2.1 mm, 1.7 µm, 35 °C, 0.25 mL/min, estimated dead time 0.88 min; A: water + 0.1% acetic acid, pH 3; B: acetonitrile; gradient (min/%B) 0/10 1/10 2.5/15 4/22 6/38 9/65 12/80 16/100 19/100

Compound | LC retention time [1] | LC retention time [2] | LC retention time [3] | also measured
COC1C(O)C(CO)OC1n1cnc2c(N)ncnc21 (configuration not stated) [2'-O-methyladenosine] | 5.78 min |  |  | 
COC1C(O)C(CO)OC1n1cnc2c(=O)[nH]c(N)nc21 (configuration not stated) [2'-O-methylguanosine] | 5.34 min |  |  | 
COC1C(c2c[nH]c(=O)[nH]c2=O)OC(CO)C1O (configuration not stated) [2'-O-methylpseudouridine] | 4.95 min |  |  | 
COC1C(O)C(CO)OC1n1ccc(=O)[nH]c1=O (configuration not stated) [2'-O-methyluridine] | 4.79 min |  |  | 
O=C(O)CCC(=O)C(=O)O [2-Oxoglutaric acid] |  | 8.54 min | 9.47 min | 
O=C(O)CCC(O)C(=O)O (configuration not stated) [2-hydroxy glutaric acid] |  | 8.97 min | 10 min | 
CCCC(=O)OC(CC(=O)[O-])C[N+](C)(C)C (configuration not stated) [Butyrylcarnitine] |  |  |  | LC retention time [4]: 2.75 min
O=C(O)CC(O)(CC(=O)O)C(=O)O [Citric acid] |  | 12.9 min | 14.1 min | 
NC(CCC(=O)NC(CS)C(=O)NCC(=O)O)C(=O)O (configuration not stated) [Glutathione] |  |  |  | LC retention time [5]: 2 min; LC retention time [4]: 1 min
O=C(O)CC(C(=O)O)C(O)C(=O)O (configuration not stated) [Isocitric acid] |  | 12.6 min | 13.9 min | 
CC(O)C(=O)O (configuration not stated) [Lactic acid] |  |  |  | LC retention time [4]: 1.11 min
CC(C)CC(N)C(=O)O (configuration not stated) [Leucine] |  |  |  | LC retention time [4]: 1.62 min
CC(=O)NC(Cc1ccccc1)C(=O)O (configuration not stated) [N-acetylphenylalanine] |  |  |  | LC retention time [6]: 5 min
CC(C)CC(NC(=O)C(C)O)C(=O)O (configuration not stated) [N-lactoyl-leucine] |  |  |  | LC retention time [6]: 5 min
NC(CCC(=O)NC(CSSCC(NC(=O)CCC(N)C(=O)O)C(=O)NCC(=O)O)C(=O)NCC(=O)O)C(=O)O (configuration not stated) [Oxidized glutathione] |  |  |  | LC retention time [5]: 3 min; LC retention time [4]: 1.04 min
C=C(OP(=O)(O)O)C(=O)O [PEP] |  | 12.5 min | 13.8 min | 
NC(Cc1ccccc1)C(=O)O (configuration not stated) [Phenylalanine] |  |  |  | LC retention time [6]: 2 min
O=C(O)C(CO)OP(=O)(O)O (configuration not stated) [Phosphoglyceric acid A] |  | 11.6 min | 12.9 min | 
NC(CCC(=O)NC(CSCO)C(=O)NCC(=O)O)C(=O)O (stereo not drawn) [S-(Hydroxymethyl)glutathione] |  |  |  | LC retention time [5]: 1.7 min
O=C(O)CCC(=O)O [Succinic Acid] |  | 9.06 min | 10 min | 
O=C(CO)COP(=O)(O)O [Triose phosphate] |  | 9.62 min | 10.7 min | 
Nc1ncnc2c1ncn2C1OC(CO)C(O)C1O (configuration not stated) [adenosine] | 4.57 min |  |  | 
CCC(=O)OC(CC(=O)[O-])C[N+](C)(C)C (configuration not stated) [carnitine-C3] |  | 6.36 min | 7.17 min | 
Nc1ccn(C2OC(CO)C(O)C2O)c(=O)n1 (configuration not stated) [cytidine] | 0.92 min |  |  | 
Nc1nc2c(ncn2C2OC(CO)C(O)C2O)c(=O)[nH]1 (configuration not stated) [guanosine] | 4.08 min |  |  | 
O=c1ccn(C2OC(CO)C(O)C2O)c(=O)[nH]1 (configuration not stated) [uridine] | 2.04 min |  |  | 

Reference: the RepoRT retention time repository
